The text below walks through data of patent US20080096861A1, “Chemical Compounds” (SMITHKLINE BEECHAM CORPORATION, priority 2004, published 2008).

For the test, the system named is HIV-1 IIIB. Kind of test: HOS HIV-1 infectivity assay. As to conditions: Human immunodeficiency virus 1, IIIB; as determined by the infectivity assay; strain not stated in Table 2; read-out: Activity Level. Type of test: cell-based. On the procedure:
Compounds were profiled against two HIV-1 viruses, the M-tropic (CCR5 utilizing) Ba-L strain and the T-tropic (CXCR4 utilizing) IIIB strain. Both viruses were propagated in human peripheral blood lymphocytes. Compounds were tested for there ability to block infection of the HOS cell line (expressing hCXCR4/hCCR5/hCD4/pHIV-LTR-luciferase) by either HIV-1 Ba-L or HIV-1 IIIB. Compound cytotoxicity was also examined in the absence of virus addition.
HOS cells (expressing hCXCR4/hCCR5/hCD4/pHIV-LTR-luciferase) were harvested and diluted in Dulbeccos modified Eagles media supplemented with 2% FCS and non-essential amino acid to a concentration of 60,000 cells/ml. The cells were plated into 96-well plates (100 ul per well) and the plates were placed in a tissue culture incubator (37° C.; 5% CO2/95% air) for a period of 24 h.
Subsequently, 50 ul of the desired drug solution (4 times the final concentration) was added to each well and the plates were returned to the tissue culture incubator (37° C.; 5% CO2/95% air) for 1 h. Following this incubation 50 ul of diluted virus was added to each well (approximately 2 million RLU per well of virus). The plates were returned to the tissue culture incubator (37° C.; 5% CO2/95% air) and were incubated for a further 96 h.
Following this incubation the endpoint for the virally infected cultures was quantified following addition of Steady-Glo Luciferase assay system reagent (Promega, Madison, Wis.). Cell viability or non-infected cultures was measured using a CellTiter-Glo luminescent cell viability assay system (Promega, Madison, Wis.). All luminescent readouts are performed on a Topcount luminescence detector (Packard, Meridien, Conn.).

pIC50: −log10 of the molar value. Where only a bound is given, the exact number is not on record here.

Take `CN(C)CCN1CCC[C@H](Cn2c(CN(C)[C@H]3CCCc4cccnc43)nc3ccccc32)C1` [Example 105, (8S)—N-{[1-({(3S)-1-[2-(Dimethylamino)ethyl]-3-piperidinyl}methyl)-1H-benzimidazol-2-yl]methyl}-N-methyl-5,6,7,8-tetrahydro-8-quinolinamine]: the pIC50 is more than 7.00. The figure for `CN(C)/C(=N\C#N)N1CCC[C@H](Cn2c(CN(C)[C@H]3CCCc4cccnc43)nc3ccccc32)C1` [Example 92, (3R)—N′-Cyano-N,N-dimethyl-3-{[2-({methyl[(8S)-5,6,7,8-tetrahydro-8-quinolinyl]amino}methyl)-1H-benzimidazol-1-yl]methyl}-1-piperidinecarboximidamide] is 6.30 to 7.00; for `CN(Cc1nc2ccccc2n1CC(=O)NCc1ccncc1)C1CCCc2cccnc21` (stereo not drawn) [Example 28, 2-(2-{[Methyl(5,6,7,8-tetrahydro-8-quinolinyl)amino]methyl}-1H-benzimidazol-1-yl)-N-(4-pyridinylmethyl)acetamide] it is 6.30 to 7.00; for `CN(Cc1nc2ccccc2n1CCc1ccccn1)C1CCCc2cccnc21` (stereo not drawn) [Example 37, N-methyl-N-([1-[2-(2-pyridinyl)ethyl]-1H-benzimidazol-2-yl]methyl)-5,6,7,8-tetrahydro-8-quinolinamine] it is 6.30 to 7.00. In the case of `CN(Cc1nc2ccccc2n1CC(=O)NCCN)C1CCCc2cccnc21` (stereo not drawn) [Example 31, N-(2-Aminoethyl)-2-(2-{[methyl(5,6,7,8-tetrahydro-8-quinolinyl)amino]methyl}-1H-benzimidazol-1-yl)acetamide] it was 6.30 to 7.00; in that of `CCCN(Cc1nc2ccccc2n1C[C@H]1CCCN(C(C)C)C1)[C@H]1CCCc2cccnc21` [Example 97, (8S)—N-[(1-{[(3S)-1-(1-methylethyl)-3-piperidinyl]methyl}-1H-benzimidazol-2-yl)methyl]-N-propyl-5,6,7,8-tetrahydro-8-quinolinamine], more than 7.00; in that of `CN(C)CC#CCn1c(CN(C)C2CCCc3cccnc32)nc2ccccc21` (stereo not drawn) [Example 56, N-({1-[4-(Dimethylamino)-2-butyn-1-yl}-1H-benzimidazol-2-yl]methyl)-N-methyl-5,6,7,8-tetrahydro-8-quinolinamine], 6.30 to 7.00.

As to `CN(Cc1nc2ccccc2n1C[C@H]1CCCN(/C(N)=N/C#N)C1)[C@H]1CCCc2cccnc21` [Example 91, (3R)—N-Cyano-3-{[2-({methyl[(8S)-5,6,7,8-tetrahydro-8-quinolinyl]amino}methyl)-1H-benzimidazol-1-yl]methyl}-1-piperidinecarboximidamide], the pIC50 is more than 7.00.

For `CN(Cc1nc2ccccc2n1CCc1cncn1C)C1CCCc2cccnc21` (stereo not drawn) [Example 71, N-Methyl-N-({1-[2-(1-methyl-1H-imidazol-5-yl)ethyl]-1H-benzimidazol-2-yl}methyl)-5,6,7,8-tetrahydro-8-quinolinamine], the pIC50 is 6.30 to 7.00. In the case of `CN(Cc1nc2ccccc2n1C[C@H]1CCCN(Cc2cccs2)C1)[C@H]1CCCc2cccnc21` [Example 102, (8S)—N-Methyl-N-[(1-{[(3S)-1-(2-thienylmethyl)-3-Piperidinyl]methyl}-1H-benzimidazol-2-yl)methyl]-5,6,7,8-tetrahydro-8-quinolinamine] it was more than 7.00; in that of `CN(C)Cc1ccc(-n2c(CN(C)C3CCCc4cccnc43)nc3ccccc32)cc1` (stereo not drawn) [Example 73, N-[(1-{4-[(Dimethylamino)methyl]phenyl}-1H-benzimidazol-2-yl)methyl]-N-methyl-5,6,7,8-tetrahydro-8-quinolinamine], 5.00 to 6.30; in that of `CC(C)N1CCC[C@H]1CN1CCC[C@H](Cn2c(CN(C)[C@H]3CCCc4cccnc43)nc3ccccc32)C1` [Example 107, (8S)—N-Methyl-N-({1-[((3S)-1-{[(2S)-1-(1-methylethyl)-2-Pyrrolidinyl]methyl}-3-piperidinyl)methyl]-1H-benzimidazol-2-yl}methyl)-5,6,7,8-tetrahydro-8-quinolinamine], more than 7.00.
